Experimental findings from patent publication US20080171709A1, “Pharmaceutical Composition Comprising An Antiviral Agent, An Antitumoral Agent Or An Antiparasitic Agent, And An Active Agent Selected Among Carveol, Thymol, Eugenol, Borneol,And Carvacrol” (priority 2005, published 2008) are described below.

Values after ≈ are worked out from the molar mass of the structure shown. Where two headings read alike, the source gives them in different places.

Data set [1] relates to HEP (human larynx carcinoma) cell line. Description: MTT cytotoxicity on HEP cell line. The format is cell-based. How it is done: (§1) […] tests were carried out on HEP (human larynx carcinoma), BSR (hamster kidney carcinoma) and P815 (murin mastocytoma) cell lines cultivated on DMEM medium (Dulbecco's modified eagles medium) supplemented with 5% of fetal bovine serum (Gibco BRL, France), 1% of penicillin- streptomycin-neomycin, 0.2% of sodium bicarbonate. These percentages are given as ratio of the weight to the global volume of the medium.
(§2) In these compositions, excipient is agar solution.
(§3) IC50 have been determined.

Data set [2] relates to BSR (hamster kidney carcinoma) cell line. Put plainly: MTT cytotoxicity on BSR cell line. The format is cell-based. The conditions noted are these: Mesocricetus auratus, read-out: IC50 (concentration inducing cytotoxicity for 50% of treated tumor cells). The protocol: as §1, §2, §3
Data set [3] has as its system P815 (murin mastocytoma) cell line. Description: MTT cytotoxicity on P815 cell line. Type of data set: cell-based. The following applies: Mus musculus, P815, read-out: IC50 (concentration inducing cytotoxicity for 50% of treated tumor cells). The protocol:
as §1, §2, §3

The test system of data set [4] is HEP, BSR and P815 cell lines. Put plainly: cells. The protocol:
as §1, §2, §3

Where [5] appears, read: read-out: IC50 (concentration inducing cytotoxicity for 50% of treated tumor cells).

As to `C=C(C)C1CC=C(C)C(O)C1` (mixture of isomers) [Carveol, carveol], the IC50 in data set [1] (setting [5]), in data set [2] and in data set [3] was 400 µg/mL in each case. Moreover, the “cytotoxic effects towards cell lines at the concentration used in the tested compositions” value (shortened to “cytotoxic effects towards cell lines”) in data set [4] is reported as “without any cytotoxic effects”.

In the case of `Cc1ccc(C(C)C)cc1O` [Carvacrol, carvacrol], the IC50 was 300 µg/mL (≈ 2000 µM) in data set [1] (read-out: IC50 (concentration inducing cytotoxicity for 50% of treated tumor cells), HEP, carvacrol, thymol or carveol alone); 300 µg/mL (≈ 2000 µM) in data set [2] (BSR, carvacrol, thymol or carveol alone); 300 µg/mL (≈ 2000 µM) in data set [3]. Further, the “cytotoxic effects towards cell lines” value in data set [4] was “without any cytotoxic effects”.

As to `COc1cccc2c1C(=O)c1c(O)c3c(c(O)c1C2=O)C[C@@](O)(C(=O)CO)C[C@@H]3O[C@H]1C[C@H](N)[C@H](O)[C@H](C)O1` [Doxorubicin, doxorubicin, reference compound], the IC50 was 20 µg/mL (≈ 36.8 µM) in data set [1] (setting [5]); 25 µg/mL (≈ 46 µM) in data set [2]; 15 µg/mL (≈ 27.6 µM) in data set [3]; 15 to 25 µg/mL (≈ 27.6 to 46 µM) in data set [4] (Mus musculus, P815, read-out: IC50 of doxorubicin used alone).

For the compound `Cc1ccc(C(C)C)c(O)c1` [Thymol, thymol], the IC50 in data set [1] (setting [5]), in data set [2] and in data set [3] was 300 µg/mL (≈ 2000 µM) each time. For the same compound, the “cytotoxic effects towards cell lines” value in data set [4] is on record as “without any cytotoxic effects”.
